This passage reports melting point results from a melting point compilation (Tetko et al.).

As a reminder, the melting point is the temperature, or range, at which the solid turns liquid. In turn, `Cn1cc(S(=O)(=O)Cl)cc1C(=O)C(Cl)(Cl)Cl` came in with a melting point of 158 to 160 °C.

The compound `CS(=O)(=O)CCc1ccc(N)cc1` showed a melting point of 93 to 95 °C.

In turn, `O=C(O)C(O)C1CC1` (configuration not stated) returned a melting point of 66 to 68 °C.

Compound `O=C(O)C1(c2ccccc2Cl)CCOCC1` yielded a melting point of 201 to 203 °C.

The compound `CCS(=O)(=O)c1cc(F)ccc1N` displayed a melting point of 43 to 45 °C.

With `Nc1cc(-c2ccccc2)nc(N)n1`, the melting point was 153 to 155 °C.

On to `ClCc1nc(-c2cccc(Cl)c2)no1`, for which the melting point was in the range of 38 to 42 °C.

In the case of `CCOC(OCC)c1cc(-c2cccc(F)c2)[nH]n1`, the melting point was in the range of 82 to 84 °C.

For the compound `N#CCCOc1ccccc1`, the melting point lay in the range of 58 to 61 °C.

`CCc1cccc2c(C=O)c[nH]c12`: the melting point was in the range of 99 to 101 °C.

As to `CC1CN(S(=O)(=O)c2ccc(N)cc2)CC(C)O1` (configuration not stated), the melting point was in the range of 199 to 203 °C.

`CS(=O)(=O)Nc1ccc(C(=O)CBr)cc1`: the melting point is 178 to 180 °C.

With `Cc1ccccc1COc1c(C)cc(C=O)cc1C`, the melting point fell in the range of 62 to 64 °C.

The compound `c1ccc2[nH]c(C3CC3)nc2c1` showed a melting point of 232 to 234 °C.

As for `CN1CCC(=O)Nc2cc(Cl)ccc21`, the melting point was in the range of 138 to 140 °C.

`NC(=S)N1CCCC1` displayed a melting point of 140 to 142 °C.

With `CC(=O)c1cc(F)ccc1-n1ccnc1`, the melting point was 182 to 184 °C.

In the case of `O=C(O)CN(Cc1ccccc1)Cc1ccccc1`, the melting point lay within 195 to 197 °C.

The compound `O=Cc1ccn(-c2ccccc2)n1` came in with a melting point of 49 to 51 °C.

`O=C(O)c1cc(S(=O)(=O)Cl)cc(F)c1F` had a melting point of 111 to 113 °C.

`O=C(O)CCCCCNS(=O)(=O)c1ccc2c(c1)OCCO2` came in with a melting point of 86 to 90 °C.

Take `CC(N)c1ccc(N2CCOCC2)cc1` (configuration not stated): the melting point fell in the range of 61 to 63 °C.

In turn, `OCCOC1CCNCC1` showed a melting point of 61 to 63 °C.

For the compound `N#CCC(=O)NC1CC1`, the melting point was 87 to 90 °C.

With `Cc1ccc(S(=O)(=O)Nc2cccc(Cl)c2)cc1N`, the melting point lay in the range of 110 to 112 °C.

As to `Cc1cccc2c(CC(=O)O)c(-c3ccccc3)[nH]c12`, the melting point fell in the range of 159 to 161 °C.

`NCCCc1nc(C2CC2)n[nH]1` showed a melting point of 207 to 209 °C.

`COc1ccc(N)c(OC)n1`: the melting point was in the range of 210 to 212 °C.

The compound `O=C(O)CSc1nnc(-c2ccc(F)cc2)o1` yielded a melting point of 140 to 142 °C.

In turn, `O=C(O)c1c(C(F)(F)F)n[nH]c1C(F)(F)F` gave a melting point of 255 to 257 °C.

As for `CS(=O)(=O)NC1CCNCC1`, the melting point is 143 to 145 °C.

`O=C(O)c1cc(S(=O)(=O)Cl)c(F)c(Cl)c1F` had a melting point of 191 to 193 °C.

As for `N#Cc1ccc(N2CCCC(Br)C2=O)cc1` (configuration not stated), the melting point fell in the range of 124 to 126 °C.

For the compound `CCOC(=O)COc1ccc(O)cc1`, the melting point was 121 to 123 °C.

As for `NS(=O)(=O)c1cn[nH]c1`, the melting point was in the range of 200 to 202 °C.

Compound `O=C(O)CN1N=C(C(F)(F)F)CC1=O` gave a melting point of 218 to 220 °C.

`CC(=O)CC(=O)Nc1ccc(F)cc1` came in with a melting point of 101 to 103 °C.

Compound `CN1CC(=O)N(CC(=O)Nc2ccccc2)C1=O` showed a melting point of 279 to 281 °C.

As for `Cn1cc(S(=O)(=O)Cl)cn1`, the melting point is 48 to 50 °C.

The compound `COc1ccc(CN2CCCC2)cc1N` registered a melting point of 46 to 48 °C.

In turn, `NNC(=O)c1cccc(S(=O)(=O)N2CCOCC2)c1` showed a melting point of 140 to 142 °C.

Compound `COC(=O)[C@@H]1C[C@@H](O)CN1C(=O)C12CC3CC(CC(C3)C1)C2` returned a melting point of 158 to 160 °C.

Regarding `CCn1ccnc1S`, the melting point lay in the range of 78 to 80 °C.

`CS(=O)(=O)c1cccc(Cl)c1C(=O)O` came in with a melting point of 147 to 149 °C.

As to `Cc1ccccc1OCCC(=O)O`, the melting point is 92 to 94 °C.

With `Cc1cc(C)c2c(C(=O)O)cc(C3CC3)nc2c1`, the melting point was 217 to 219 °C.

`CC(C(=O)O)N1C(=O)C2C3CCC(O3)C2C1=O` (configuration not stated) had a melting point of 189 to 191 °C.

In turn, `O=C(O)C1CCCN(c2nccs2)C1` (configuration not stated) registered a melting point of 121 to 123 °C.

On to `Nc1ccccc1Oc1ccccc1N`, for which the melting point is 61 to 64 °C.

As to `COC(=O)C(=O)C=C(C)OC`, the melting point lay within 37 to 39 °C.

Compound `Cc1cn2c(CC(=O)O)csc2n1` yielded a melting point of 211 to 213 °C.

As to `CC(C)C(Br)C(=O)Nc1ccccc1Cl` (configuration not stated), the melting point was 114 to 116 °C.

On to `Cn1cc(C#N)c(N)n1`, for which the melting point was in the range of 119 to 121 °C.

As to `COc1cccc(NC(=O)CCl)c1`, the melting point fell in the range of 73 to 75 °C.

The compound `CN1CCN(c2cc(CN)ccn2)CC1` came in with a melting point of 72 to 74 °C.

Take `COc1ccc(F)cc1C(=O)CBr`: the melting point is 74 to 76 °C.

`COC(=O)c1noc(C)c1C(=O)c1ccccc1`: the melting point lay in the range of 90 to 92 °C.

`O=C1C(Br)CCN1c1c(F)cccc1F` (configuration not stated): the melting point is 79 to 81 °C.

`Nc1nc(-c2ccccc2F)cs1` had a melting point of 102 to 104 °C.

For `O=C1NS(=O)(=O)c2ncccc21`, the melting point lay in the range of 199 to 201 °C.

The compound `CS(=O)(=O)c1cccc(O)c1` returned a melting point of 69 to 71 °C.

Regarding `CC(C)C1=NN(C)C(=O)C1`, the melting point is 110 to 112 °C.

Compound `CCOC(=O)c1ccc(N)c(O)c1` displayed a melting point of 91 to 93 °C.

For the compound `CC(C)(C)c1cc([N+](=O)[O-])c(O)c(C(C)(C)C)c1`, the melting point is 58 to 60 °C.

With `CNC(=O)NC(=O)C(Cl)c1ccccc1` (configuration not stated), the melting point lay in the range of 130 to 132 °C.

The compound `O=C1NCCCN2CCCC12` (configuration not stated) had a melting point of 120 to 122 °C.

As for `CCNC(=O)NCCCO`, the melting point fell in the range of 53 to 55 °C.

Regarding `Cc1cccc(C=C(C(=O)O)c2cccs2)c1`, the melting point is 158 to 160 °C.

Compound `Nc1cccc(S(=O)(=O)Nc2ccccc2)c1` came in with a melting point of 127 to 129 °C.

The compound `NN=C1C(=O)Nc2c(Cl)cc(Cl)cc21` had a melting point of 261 to 263 °C.

Consider `Cc1cc(C(=O)O)ccc1N1C(=O)C=CC1=O`, for which the melting point fell in the range of 203 to 205 °C.

Take `Cc1noc(C)c1S(=O)(=O)NCC(=O)O`: the melting point fell in the range of 113 to 115 °C.

Consider `O=C1C=CC=NC1=C(O)Nc1ccncc1`, for which the melting point was 164 to 166 °C.

For `O=C(O)CS(=O)(=O)Cc1ccc(Br)cc1`, the melting point was 156 to 158 °C.

In the case of `Nc1cc(Br)ccc1C(=O)O`, the melting point was 222 to 224 °C.

The compound `COc1ccc(Cc2nnn[nH]2)cc1F` showed a melting point of 191 to 193 °C.

With `O=C1COc2cc(S(=O)(=O)Cl)c(Cl)cc2N1`, the melting point was in the range of 248 to 250 °C.

In the case of `CC(C)(C)OC(=O)NC(C(=O)O)C(C)(C)C` (configuration not stated), the melting point was in the range of 117 to 119 °C.

In the case of `Clc1cc[nH]n1`, the melting point lay in the range of 68 to 70 °C.

Compound `NS(=O)(=O)CCSc1ccccc1` showed a melting point of 106 to 108 °C.

The compound `CC(C)NS(=O)(=O)c1ccc(N)cc1` displayed a melting point of 112 to 114 °C.

As to `Cc1nn(-c2ccccc2)c(Cl)c1CO`, the melting point lay within 89 to 91 °C.

`Nc1ccc(Cl)cc1-n1cccc1` yielded a melting point of 92 to 94 °C.

Turning to `O=C(C(=O)c1ccc(Cl)cc1)c1ccc(Cl)cc1`, the melting point was 198 to 200 °C.

Compound `COCCOc1ccc(/C(C)=N\O)cc1OC` registered a melting point of 124 to 126 °C.

In turn, `CC(C)Oc1cncc(C(=O)O)c1` returned a melting point of 172 to 174 °C.

Consider `NNC(=O)c1sc2cc(F)ccc2c1Cl`, for which the melting point is 239 to 241 °C.

As for `COC(=O)c1ccc(Sc2ccc(Cl)cn2)c(N)c1`, the melting point is 121 to 123 °C.

Consider `NC1CCCc2[nH]ccc21` (configuration not stated), for which the melting point was 83 to 85 °C.

`O=C(O)c1cccc(NS(=O)(=O)c2cccs2)c1`: the melting point fell in the range of 197 to 199 °C.

`Cc1ccc(NCCC(=O)O)nc1` showed a melting point of 201 to 203 °C.

The compound `CN1CCN(S(=O)(=O)c2cccc(N)c2)CC1` displayed a melting point of 140 to 142 °C.

`COc1ccc(-n2cc(O)c(C(=O)O)n2)cc1`: the melting point was in the range of 234 to 236 °C.

`CNS(=O)(=O)c1ccccc1CN`: the melting point was in the range of 115 to 117 °C.

Take `CCCOc1ccc(OCCBr)cc1`: the melting point lay in the range of 45 to 47 °C.

`CS(=O)(=O)c1ccc(Cl)c([N+](=O)[O-])c1`: the melting point lay in the range of 121 to 123 °C.

On to `CC1CCC(NS(=O)(=O)c2ccc(Cl)c([N+](=O)[O-])c2)CC1` (configuration not stated), for which the melting point lay in the range of 101 to 103 °C.

Compound `O=C(O)C(c1ccc(Br)cc1)N1CCCC1` (configuration not stated) came in with a melting point of 214 to 216 °C.

The compound `COc1ccc(Cl)cc1CC(=O)O` displayed a melting point of 131 to 133 °C.

Compound `O=C(O)c1cccc(-n2cc(Br)cn2)c1` showed a melting point of 195 to 197 °C.

Take `Cc1ccc(-c2nc(C)c(C(C)N)s2)cc1` (configuration not stated): the melting point is 57 to 59 °C.

For the compound `OCc1cc(Br)cc(CO)c1O`, the melting point lay within 164 to 166 °C.

The compound `COC(=O)c1c[nH]c(=O)c(C#N)c1` registered a melting point of 264 to 266 °C.

Compound `C1CCC(NC2=NCCCS2)CC1` gave a melting point of 112 to 114 °C.

Regarding `COC(=O)c1cc(I)cc(S(=O)(=O)Cl)c1`, the melting point is 67 to 69 °C.

In the case of `COC1(OC)C2(Cl)C3C(=O)C4C5C(=O)C3C1(Cl)C5(Cl)C42Cl` (configuration not stated), the melting point lay in the range of 155 to 157 °C.

As to `O=S(=O)(Cl)C1CCCCC1O` (configuration not stated), the melting point fell in the range of 49 to 51 °C.

`O=C(O)c1[nH]nc(-c2ccccc2)c1Br` gave a melting point of 260 to 262 °C.

As for `COc1ccc(OCc2nc(C=O)cs2)cc1`, the melting point was 95 to 97 °C.

Consider `O=C(CCl)Nc1ccnn1Cc1ccccc1Cl`, for which the melting point lay within 119 to 121 °C.

As for `O=C(O)c1ccc(S(=O)(=O)CC(F)(F)F)cc1`, the melting point was 239 to 241 °C.

The compound `CC(C)(C)OC(=O)Nc1cc(N)ccc1F` registered a melting point of 92 to 94 °C.

The compound `COC(=O)c1cc(C(=O)O)ccn1` showed a melting point of 233 to 235 °C.

The compound `O=C(Nc1cc(F)ccc1C(=O)O)c1ccoc1` yielded a melting point of 253 to 255 °C.

`Cc1cc(Cl)c2cccc([N+](=O)[O-])c2n1` displayed a melting point of 109 to 111 °C.

In turn, `CC(O)(C(=O)O)c1cccc(F)c1` (configuration not stated) had a melting point of 99 to 101 °C.

On to `O=C(O)c1ccc(CS(=O)(=O)c2ccccc2)cc1`, for which the melting point lay in the range of 297 to 299 °C.

As for `CS(=O)(=O)c1cc(S(=O)(=O)Cl)c(Cl)s1`, the melting point fell in the range of 124 to 126 °C.

Consider `O=C(O)Cn1c(COc2ccccc2)nc2ccccc21`, for which the melting point was 199 to 201 °C.

The compound `CC(C)C1(C(=O)O)CC1` gave a melting point of 54 to 56 °C.

As for `O=C1N[C@H](C(=O)O)CS1`, the melting point is 166 to 170 °C.

For the compound `Cn1nc(C(=O)O)cc1-c1ccc2c(c1)OCO2`, the melting point was in the range of 214 to 216 °C.
